Laboratory results published in PubChem BioAssay AID2060890 (Molecular Pharmacology Branch, DTP, NCI, 2025).
One block for each molecule: values may come before it.

Test system: LG0703-F948-PDC complex spheroid viability
Experiment: Anticancer human tumor LG0703-F948-PDC patient-derived lung adenocarcinoma cell line growth inhibition [RAS]
Conditions: for viability, T/C: stronger effect = lower value
Summary of the method: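 Tumour cells grown as complex spheroids with HUVEC endothelial cells and mesenchymal stem cells, treated with RAS pathway inhibitor combinations. Each agent spans half-log steps from near clinical Cmax, or 10 microM where Cmax is unknown.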

[1] = curve of first compound, second compound 0.0316 µM
[2] = curve of first compound, second compound 0.1 µM
[3] = curve of first compound, second compound 0.316 µM
[4] = curve of first compound, second compound 1 µM
[5] = curve of first compound, second compound 3.16 µM
[6] = curve of first compound, second compound 10 µM
[7] = second compound 0.0316 µM, first compound 0.00316 µM
[8] = second compound 0.0316 µM, first compound 0.01 µM
[9] = second compound 0.0316 µM, first compound 0.0316 µM
[10] = second compound 0.0316 µM, first compound 0.1 µM
[11] = second compound 0.0316 µM, first compound 0.316 µM
[12] = second compound 0.0316 µM, first compound 1 µM
[13] = second compound 0.1 µM, first compound 0.00316 µM
[14] = second compound 0.1 µM, first compound 0.01 µM
[15] = second compound 0.1 µM, first compound 0.0316 µM
[16] = second compound 0.1 µM, first compound 0.1 µM
[17] = second compound 0.1 µM, first compound 0.316 µM
[18] = second compound 0.1 µM, first compound 1 µM
[19] = second compound 0.316 µM, first compound 0.00316 µM
[20] = second compound 0.316 µM, first compound 0.01 µM
[21] = second compound 0.316 µM, first compound 0.0316 µM
[22] = second compound 0.316 µM, first compound 0.1 µM
[23] = second compound 0.316 µM, first compound 0.316 µM
[24] = second compound 0.316 µM, first compound 1 µM
[25] = second compound 1 µM, first compound 0.00316 µM
[26] = second compound 1 µM, first compound 0.01 µM
[27] = second compound 1 µM, first compound 0.0316 µM
[28] = second compound 1 µM, first compound 0.1 µM
[29] = second compound 1 µM, first compound 0.316 µM
[30] = second compound 1 µM, first compound 1 µM
[31] = second compound 3.16 µM, first compound 0.00316 µM
[32] = second compound 3.16 µM, first compound 0.01 µM
[33] = second compound 3.16 µM, first compound 0.0316 µM
[34] = second compound 3.16 µM, first compound 0.1 µM
[35] = second compound 3.16 µM, first compound 0.316 µM
[36] = second compound 3.16 µM, first compound 1 µM
[37] = second compound 10 µM, first compound 0.00316 µM
[38] = second compound 10 µM, first compound 0.01 µM
[39] = second compound 10 µM, first compound 0.0316 µM
[40] = second compound 10 µM, first compound 0.1 µM
[41] = second compound 10 µM, first compound 0.316 µM
[42] = second compound 10 µM, first compound 1 µM
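Also: spheroids exposed to agents for 7 days.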
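For viability, T/C in this document: 100% = DMSO vehicle wells.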

IC50 [1]: > 1000 nM
IC50 [2]: > 1000 nM
IC50 [3]: > 1000 nM
IC50 [4]: > 1000 nM
IC50 [5]: > 1000 nM
IC50 [6]: 197 nM
Compound: C=CC(=O)N1CCN(c2nc(OCC3CCCN3C)nc3c(F)c(-c4nc(N)cc(C)c4C(F)(F)F)c(Cl)cc23)C(C)C1 (stereo not drawn) + C#Cc1c(F)ccc2cc(O)cc(-c3ncc4c(N5CC6CCC(C5)N6)nc(OCC56CCCN5CC(F)C6)nc4c3F)c12
viability, T/C [7]: 127%
viability, T/C [8]: 87.8%
viability, T/C [9]: 111%
viability, T/C [10]: 120%
viability, T/C [11]: 109%
viability, T/C [12]: 85.2%
viability, T/C [13]: 98.7%
viability, T/C [14]: 110%
viability, T/C [15]: 94.9%
viability, T/C [16]: 104%
viability, T/C [17]: 109%
viability, T/C [18]: 97.8%
viability, T/C [19]: 89.5%
viability, T/C [20]: 82.2%
viability, T/C [21]: 86.1%
viability, T/C [22]: 72.6%
viability, T/C [23]: 82%
viability, T/C [24]: 84.6%
viability, T/C [25]: 63.7%
viability, T/C [26]: 76.6%
viability, T/C [27]: 79.3%
viability, T/C [28]: 66.2%
viability, T/C [29]: 73.9%
viability, T/C [30]: 75%
viability, T/C [31]: 61.8%
viability, T/C [32]: 57.8%
viability, T/C [33]: 75.3%
viability, T/C [34]: 63.6%
viability, T/C [35]: 59.3%
viability, T/C [36]: 62.9%
viability, T/C [37]: 51.9%
viability, T/C [38]: 54.2%
viability, T/C [39]: 54.1%
viability, T/C [40]: 47.5%
viability, T/C [41]: 50.7%
viability, T/C [42]: 47%

IC50 (curve of compound): > 300 nM
Compound: CC1(C)CCC(Nc2ncc(C(F)(F)F)c(-c3c[nH]c4c(P(C)(C)=O)c(C#N)ccc34)n2)CN1 (stereo not drawn)
viability, T/C (compound 0.000949 µM): 91% [middle of 4 runs]
viability, T/C (compound 0.003 µM): 76.9% [middle of 4 runs]
viability, T/C (compound 0.00949 µM): 68.7% [middle of 4 runs]
viability, T/C (compound 0.03 µM): 67.9% [middle of 4 runs]
viability, T/C (compound 0.0949 µM): 65.8% [middle of 4 runs]
viability, T/C (compound 0.3 µM): 67.9% [middle of 4 runs]

IC50 (curve of first compound, second compound 0.000949 µM): > 1000 nM
IC50 (curve of first compound, second compound 0.003 µM): > 1000 nM
IC50 (curve of first compound, second compound 0.00949 µM): > 1000 nM
IC50 (curve of first compound, second compound 0.03 µM): > 1000 nM
IC50 (curve of first compound, second compound 0.0949 µM): > 1000 nM
IC50 (curve of first compound, second compound 0.3 µM): < 3.16 nM
Compound: CCN1CCN(Cc2ccc(Nc3ncc(F)c(-c4cc(F)c5nc(C)n(C(C)C)c5c4)n3)nc2)CC1 + CCn1c(-c2cccnc2C(C)OC)c2c3cc(ccc31)N1CCOC(CC(NC(=O)C(C(C)C)N(C)C(=O)C3(F)CCN(C(=O)C#CC(C)(C)N(C)C)CC3)C(=O)N3CCCC(N3)C(=O)OCC(C)(C)C2)C1
viability, T/C (second compound 0.000949 µM, first compound 0.00316 µM): 103%
viability, T/C (second compound 0.000949 µM, first compound 0.01 µM): 111%
viability, T/C (second compound 0.000949 µM, first compound 0.0316 µM): 91.9%
viability, T/C (second compound 0.000949 µM, first compound 0.1 µM): 81.8%
viability, T/C (second compound 0.000949 µM, first compound 0.316 µM): 79.4%
viability, T/C (second compound 0.000949 µM, first compound 1 µM): 80.5%
viability, T/C (second compound 0.003 µM, first compound 0.00316 µM): 101%
viability, T/C (second compound 0.003 µM, first compound 0.01 µM): 97.3%
viability, T/C (second compound 0.003 µM, first compound 0.0316 µM): 81.1%
viability, T/C (second compound 0.003 µM, first compound 0.1 µM): 104%
viability, T/C (second compound 0.003 µM, first compound 0.316 µM): 111%
viability, T/C (second compound 0.003 µM, first compound 1 µM): 76.8%
viability, T/C (second compound 0.00949 µM, first compound 0.00316 µM): 101%
viability, T/C (second compound 0.00949 µM, first compound 0.01 µM): 97.2%
viability, T/C (second compound 0.00949 µM, first compound 0.0316 µM): 93%
viability, T/C (second compound 0.00949 µM, first compound 0.1 µM): 108%
viability, T/C (second compound 0.00949 µM, first compound 0.316 µM): 82.4%
viability, T/C (second compound 0.00949 µM, first compound 1 µM): 94.8%
viability, T/C (second compound 0.03 µM, first compound 0.00316 µM): 96.9%
viability, T/C (second compound 0.03 µM, first compound 0.01 µM): 98%
viability, T/C (second compound 0.03 µM, first compound 0.0316 µM): 95.5%
viability, T/C (second compound 0.03 µM, first compound 0.1 µM): 75.4%
viability, T/C (second compound 0.03 µM, first compound 0.316 µM): 81.2%
viability, T/C (second compound 0.03 µM, first compound 1 µM): 79%
viability, T/C (second compound 0.0949 µM, first compound 0.00316 µM): 90.7%
viability, T/C (second compound 0.0949 µM, first compound 0.01 µM): 86.8%
viability, T/C (second compound 0.0949 µM, first compound 0.0316 µM): 86.3%
viability, T/C (second compound 0.0949 µM, first compound 0.1 µM): 90.1%
viability, T/C (second compound 0.0949 µM, first compound 0.316 µM): 84.8%
viability, T/C (second compound 0.0949 µM, first compound 1 µM): 74.8%
viability, T/C (second compound 0.3 µM, first compound 0.00316 µM): 54.6%
viability, T/C (second compound 0.3 µM, first compound 0.01 µM): 40%
viability, T/C (second compound 0.3 µM, first compound 0.0316 µM): 56.4%
viability, T/C (second compound 0.3 µM, first compound 0.1 µM): 54.7%
viability, T/C (second compound 0.3 µM, first compound 0.316 µM): 59.8%
viability, T/C (second compound 0.3 µM, first compound 1 µM): 54.5%

IC50 [1]: 68.4 nM
IC50 [2]: 62.1 nM
IC50 [3]: 32.2 nM
IC50 [4]: 32.8 nM
IC50 [5]: 7.71 nM
IC50 [6]: < 3.16 nM
Compound: O=C(c1ccc(F)c(F)c1Nc1ccc(I)cc1F)N1CC(O)([C@@H]2CCCCN2)C1 + C#Cc1c(F)ccc2cc(O)cc(-c3ncc4c(N5CC6CCC(C5)N6)nc(OCC56CCCN5CC(F)C6)nc4c3F)c12
viability, T/C [7]: 103%
viability, T/C [8]: 75.2%
viability, T/C [9]: 60.5%
viability, T/C [10]: 45.4%
viability, T/C [11]: 35.6%
viability, T/C [12]: 24.1%
viability, T/C [13]: 91.8%
viability, T/C [14]: 70.2%
viability, T/C [15]: 64%
viability, T/C [16]: 39.4%
viability, T/C [17]: 34.2%
viability, T/C [18]: 21.9%
viability, T/C [19]: 80.5%
viability, T/C [20]: 66.1%
viability, T/C [21]: 53.1%
viability, T/C [22]: 31.6%
viability, T/C [23]: 28.2%
viability, T/C [24]: 22.3%
viability, T/C [25]: 66%
viability, T/C [26]: 54.8%
viability, T/C [27]: 51.5%
viability, T/C [28]: 24.4%
viability, T/C [29]: 25.1%
viability, T/C [30]: 19.7%
viability, T/C [31]: 56.8%
viability, T/C [32]: 47.9%
viability, T/C [33]: 33.8%
viability, T/C [34]: 21.4%
viability, T/C [35]: 22.6%
viability, T/C [36]: 16.3%
viability, T/C [37]: 43.9%
viability, T/C [38]: 38.3%
viability, T/C [39]: 18.1%
viability, T/C [40]: 17.3%
viability, T/C [41]: 6.81%
viability, T/C [42]: 2.29%
